Assay results taken from PubChem BioAssay (NCI).
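Test compounds were applied to cells in 96-well plates for 48 hours at 5 doses. TGI marks complete inhibition of growth.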

What was measured:
Assay in all cases: inhibition of tumour cell growth, NCI panel, 48 h
NCI-H23 lung = tested on: NCI-H23 lung
SF-539 CNS = tested on: SF-539 CNS
HS 578T breast = tested on: HS 578T breast
NCI/ADR-RES ovarian = tested on: NCI/ADR-RES ovarian
UACC-257 melanoma = tested on: UACC-257 melanoma

Structure (SMILES) | TGI (NCI-H23 lung) [µM] | TGI (SF-539 CNS) [µM] | TGI (HS 578T breast) [µM] | TGI (NCI/ADR-RES ovarian) [µM] | TGI (UACC-257 melanoma) [µM]
CNC(=S)N/N=C(C)\C(=N/NC(=S)NC)c1ccccc1 | > 100 | > 100 | 72.5 | > 100 | > 100
COc1ccc2c3c1O[C@H]1C(O)CCC4(O)[C@@H](C2)NCC[C@]314 (some centres undefined) | > 100 | > 100 | > 100 | > 100 | > 100
CCN(CC)c1ccc2cc(-c3nnc(-c4ccccc4)o3)c(=O)oc2c1 | > 100 | > 37.5 | > 100 | > 100 | > 100
CCC1c2[nH]c3ccccc3c2C[C@H]2C(=O)NC(COC(C)(C)C)C(=O)N12 (some centres undefined) | > 100 | – | > 100 | > 100 | > 100
CCN(CC)/C(Cl)=C(Cl)\C(=C1\Nc2ccc(OC)cc21)[N+](=O)[O-] | > 100 | – | > 100 | > 100 | > 100
Cc1cn(C2CC(ON3C(=O)c4ccccc4C3=O)C(CO)O2)c(=O)[nH]c1=O (centres undefined) | > 10 | > 10 | > 10 | > 10 | > 10
CC(=O)c1csc2c1C(=O)c1scc(C(C)=O)c1C2=O | 2.92 | 3.28 | 6.48 | 3.9 | 2.41
c1cc(-c2ncc(-c3ccc4c(c3)CCCO4)o2)ccn1 | 52.2 | 45.2 | > 100 | 23.1 | 43.5
CSC1=C(SC)SC(=C2SC3=C(SC(=C4SCCS4)S3)S2)S1 | > 100 | > 100 | > 100 | > 100 | > 100
CC1(C)OCC2OC3(c4nc(C#N)c(N)o4)OC(C)(C)OC3C2O1 (centres undefined) | > 100 | > 100 | > 100 | > 100 | > 100
CC(=O)c1sc2c(c1OC(=O)c1cccs1)c(=O)n(-c1ccccc1)c(=S)n2-c1ccccc1 | 40.9 | 6.26 | 22.3 | 43.3 | 43.9
CC(=O)N(C(=O)CC(=O)N/N=C\c1ccc(Br)c(N(CCC#N)CCC#N)c1)c1ccc(Cl)cc1 | > 100 | > 100 | > 100 | > 100 | –
C[C@]12CCC(=O)C=C1CC[C@@H]1C2CC[C@]2(C)c3nn(-c4ccc(F)cc4)nc3CC12 (some centres undefined) | > 100 | > 100 | > 100 | – | > 100
CC(=O)Oc1ccccc1-c1cc2ccccc2oc1=O | > 100 | > 100 | > 100 | > 100 | > 100
CO[C@H]1[C@@H](O)[C@@H](C)O[C@@H](O[C@H]2CC[C@@]3(C)[C@H](CC[C@@H]4[C@@H]3CC[C@]3(C)[C@@H](C5=CC(=O)OC5)[C@@H](OC(C)=O)C[C@]43O)C2)[C@@H]1O | 0.139 | 0.091 | 0.124 | 0.175 | 0.239
N#Cc1sc2nc(/C=C3/C=CC=CC3=O)c(O)n2c1N | > 100 | 60 | > 100 | > 100 | > 100

Structure (SMILES) | TGI (NCI-H23 lung) [µM] | TGI (SF-539 CNS) [µM] | TGI (HS 578T breast) [µM] | TGI (NCI/ADR-RES ovarian) [µM] | TGI (UACC-257 melanoma) [µM]
Cc1cccc(/C=N/NC(=S)NCCc2ccccn2)n1 | > 100 | > 73.3 | > 100 | > 73.7 | > 100
O=C1/C(=C\c2ccc([N+](=O)[O-])o2)SC2N=C(COc3ccc(Cl)cc3)NN12 (centres undefined) | 35 | 15.5 | > 100 | 42.9 | 16.9
COC(=O)C1=C(C)NC(C)=C(C(=O)OC)C1c1ccc(/[N+]([O-])=C/c2ccccc2)cc1 | > 100 | > 100 | > 100 | > 100 | > 100
COc1ccc(C[N+]23C(CC[C@H]2c2ccccc2)CC[C@H]3c2ccccc2)cc1 (some centres undefined) | – | – | > 100 | – | 50.5
CC1=C(Br)C(Br)=C(C)S1=O | > 100 | 27.7 | > 100 | > 100 | 32.1
CCN(CC)CCn1nc(N)c2nc3cc(Cl)ccc3nc21 | > 100 | – | > 100 | > 100 | > 100
CCN1c2nc3ccccc3nc2N(CC)c2nc3ccccc3nc21 | > 100 | 94 | > 100 | > 100 | –
COc1cccc(CCn2c(N)c(-c3ccccc3)c3ccc([N+](=O)[O-])cc3c2=O)c1 | 8.47 | 6.28 | 5.25 | 5.21 | 40.8
C/C(=N\Nc1cc(CN2CCCC2)c(-c2ccc(Cl)cc2)nn1)C(=O)O | > 100 | > 100 | > 100 | > 100 | > 100
CCOC(=O)c1nc2c(Cl)c3ncccc3cc2[nH]c1=O | > 100 | > 100 | > 100 | > 100 | > 100
Cc1ccc2nc(-c3ccc(N)c(I)c3)sc2c1 | – | 68.3 | > 100 | > 100 | > 100
CCOC(=O)C1=C(Nc2cccc(OC)c2)OCC1=O | > 100 | > 100 | > 100 | > 100 | > 100
N#CSc1nc[nH]c1C(N)=O | > 100 | > 100 | > 100 | > 100 | > 100
Cc1cc(C)cc(C(=N)c2ccccc2Cc2cccc3ccccc23)c1 | 34.1 | 30 | 21.7 | 46.3 | 64.1
CC(C)CC1[C@@H](OCc2ccccc2)COS(=O)N1Cc1ccccc1 (some centres undefined) | > 100 | – | 80 | > 100 | > 100
